Our source for the % of control values is ChEMBL document CHEMBL5465560, “Selectivity Literature for EUbOPEN Chemogenomic Library” (2024).

Assay [1] addresses T1, Serine/threonine-protein kinase Nek5 (Homo sapiens) (UniProt Q6P3R8).
T1 sequence (whole entry): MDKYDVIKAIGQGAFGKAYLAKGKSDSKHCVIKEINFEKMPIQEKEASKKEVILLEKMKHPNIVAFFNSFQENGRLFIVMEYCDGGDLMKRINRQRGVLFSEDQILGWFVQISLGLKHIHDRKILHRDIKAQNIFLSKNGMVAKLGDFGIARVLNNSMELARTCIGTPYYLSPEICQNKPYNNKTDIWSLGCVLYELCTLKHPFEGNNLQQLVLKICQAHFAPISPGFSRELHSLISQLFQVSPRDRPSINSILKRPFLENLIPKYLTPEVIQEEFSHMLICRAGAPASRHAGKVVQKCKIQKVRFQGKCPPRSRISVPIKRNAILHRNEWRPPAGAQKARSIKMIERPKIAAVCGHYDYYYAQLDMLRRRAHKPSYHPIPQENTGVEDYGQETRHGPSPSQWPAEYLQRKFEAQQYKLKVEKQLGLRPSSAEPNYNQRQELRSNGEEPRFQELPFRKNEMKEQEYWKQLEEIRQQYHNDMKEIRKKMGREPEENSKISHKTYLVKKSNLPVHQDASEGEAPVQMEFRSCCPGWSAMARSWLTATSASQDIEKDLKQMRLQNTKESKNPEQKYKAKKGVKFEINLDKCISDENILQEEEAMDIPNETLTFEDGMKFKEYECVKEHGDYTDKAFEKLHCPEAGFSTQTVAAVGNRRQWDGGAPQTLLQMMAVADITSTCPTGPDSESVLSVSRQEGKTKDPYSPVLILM
Nature of the assay: Selectivity interaction (KinomeScan (DiscoverX)) EUB0001619a NEK5. The note with it: at 1 µM.

In assay [2] the target is T2, Mitogen-activated protein kinase kinase kinase 19 (Homo sapiens) (UniProt Q56UN5).
T2 sequence (whole entry): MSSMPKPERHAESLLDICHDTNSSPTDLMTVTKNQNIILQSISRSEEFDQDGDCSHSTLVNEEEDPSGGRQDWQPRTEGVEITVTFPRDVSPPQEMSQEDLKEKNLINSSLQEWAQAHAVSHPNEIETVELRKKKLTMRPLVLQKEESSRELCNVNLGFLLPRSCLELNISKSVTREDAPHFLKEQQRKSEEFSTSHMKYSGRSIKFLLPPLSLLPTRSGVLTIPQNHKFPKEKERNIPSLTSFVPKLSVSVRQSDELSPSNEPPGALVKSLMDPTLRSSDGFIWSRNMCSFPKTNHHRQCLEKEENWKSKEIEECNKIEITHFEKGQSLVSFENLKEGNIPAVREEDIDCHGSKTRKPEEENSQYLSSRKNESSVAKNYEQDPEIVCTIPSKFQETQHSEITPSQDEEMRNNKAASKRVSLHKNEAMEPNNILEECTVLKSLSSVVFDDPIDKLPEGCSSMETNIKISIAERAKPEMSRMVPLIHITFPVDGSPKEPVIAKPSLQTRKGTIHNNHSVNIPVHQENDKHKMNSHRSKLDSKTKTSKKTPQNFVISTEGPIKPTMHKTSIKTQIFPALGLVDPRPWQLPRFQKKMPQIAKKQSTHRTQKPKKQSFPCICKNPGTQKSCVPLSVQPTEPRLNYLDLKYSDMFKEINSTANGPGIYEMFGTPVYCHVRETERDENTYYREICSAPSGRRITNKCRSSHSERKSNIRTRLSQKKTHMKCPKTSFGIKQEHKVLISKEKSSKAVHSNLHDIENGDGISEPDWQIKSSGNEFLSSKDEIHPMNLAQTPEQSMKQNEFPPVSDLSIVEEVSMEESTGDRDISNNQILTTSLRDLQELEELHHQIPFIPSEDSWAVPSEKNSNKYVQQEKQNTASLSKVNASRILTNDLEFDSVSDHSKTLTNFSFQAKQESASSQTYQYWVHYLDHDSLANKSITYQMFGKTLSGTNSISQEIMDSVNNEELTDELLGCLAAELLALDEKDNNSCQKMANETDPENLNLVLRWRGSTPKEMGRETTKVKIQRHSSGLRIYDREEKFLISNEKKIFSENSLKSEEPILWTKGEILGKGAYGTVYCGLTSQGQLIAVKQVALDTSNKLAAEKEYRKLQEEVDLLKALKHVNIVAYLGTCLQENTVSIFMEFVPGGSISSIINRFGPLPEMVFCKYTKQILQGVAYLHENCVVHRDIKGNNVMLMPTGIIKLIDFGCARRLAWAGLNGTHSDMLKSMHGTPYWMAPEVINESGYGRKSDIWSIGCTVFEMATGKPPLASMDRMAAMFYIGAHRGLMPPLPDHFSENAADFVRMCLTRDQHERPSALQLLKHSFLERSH
The conditions noted are these: at 10 µM.

The target of assay [3] is Serine/threonine-protein kinase Nek4 (Homo sapiens) (UniProt P51957). Nature of the assay: Selectivity interaction (ProQinase) EUB0000171b NEK4.
Chain of Serine/threonine-protein kinase Nek4 (Homo sapiens) (P51957 whole entry, looked up): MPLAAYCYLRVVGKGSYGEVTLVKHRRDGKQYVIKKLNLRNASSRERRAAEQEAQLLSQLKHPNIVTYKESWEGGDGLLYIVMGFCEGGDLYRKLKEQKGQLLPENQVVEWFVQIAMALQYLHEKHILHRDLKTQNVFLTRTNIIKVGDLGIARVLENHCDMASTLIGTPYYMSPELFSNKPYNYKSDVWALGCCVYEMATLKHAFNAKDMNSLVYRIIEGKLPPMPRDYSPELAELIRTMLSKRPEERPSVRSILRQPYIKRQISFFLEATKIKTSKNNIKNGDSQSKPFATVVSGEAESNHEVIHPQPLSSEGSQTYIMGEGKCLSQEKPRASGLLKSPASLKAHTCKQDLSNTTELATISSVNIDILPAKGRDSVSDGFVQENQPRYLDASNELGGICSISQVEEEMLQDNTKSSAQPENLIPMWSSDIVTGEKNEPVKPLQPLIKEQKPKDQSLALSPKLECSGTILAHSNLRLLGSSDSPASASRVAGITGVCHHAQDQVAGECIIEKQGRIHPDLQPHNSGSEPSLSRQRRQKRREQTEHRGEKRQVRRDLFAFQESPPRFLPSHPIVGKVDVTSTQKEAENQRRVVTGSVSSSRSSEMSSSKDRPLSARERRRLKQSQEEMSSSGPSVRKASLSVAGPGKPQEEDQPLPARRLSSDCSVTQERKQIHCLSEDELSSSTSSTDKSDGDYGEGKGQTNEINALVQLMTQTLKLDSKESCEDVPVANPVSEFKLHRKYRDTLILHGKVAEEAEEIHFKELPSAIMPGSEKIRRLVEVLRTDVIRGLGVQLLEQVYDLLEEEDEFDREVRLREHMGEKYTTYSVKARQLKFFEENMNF
Assay [4] concerns the target T3, Serine/threonine-protein kinase D1 (Homo sapiens) (UniProt Q15139).
T3 sequence (whole entry): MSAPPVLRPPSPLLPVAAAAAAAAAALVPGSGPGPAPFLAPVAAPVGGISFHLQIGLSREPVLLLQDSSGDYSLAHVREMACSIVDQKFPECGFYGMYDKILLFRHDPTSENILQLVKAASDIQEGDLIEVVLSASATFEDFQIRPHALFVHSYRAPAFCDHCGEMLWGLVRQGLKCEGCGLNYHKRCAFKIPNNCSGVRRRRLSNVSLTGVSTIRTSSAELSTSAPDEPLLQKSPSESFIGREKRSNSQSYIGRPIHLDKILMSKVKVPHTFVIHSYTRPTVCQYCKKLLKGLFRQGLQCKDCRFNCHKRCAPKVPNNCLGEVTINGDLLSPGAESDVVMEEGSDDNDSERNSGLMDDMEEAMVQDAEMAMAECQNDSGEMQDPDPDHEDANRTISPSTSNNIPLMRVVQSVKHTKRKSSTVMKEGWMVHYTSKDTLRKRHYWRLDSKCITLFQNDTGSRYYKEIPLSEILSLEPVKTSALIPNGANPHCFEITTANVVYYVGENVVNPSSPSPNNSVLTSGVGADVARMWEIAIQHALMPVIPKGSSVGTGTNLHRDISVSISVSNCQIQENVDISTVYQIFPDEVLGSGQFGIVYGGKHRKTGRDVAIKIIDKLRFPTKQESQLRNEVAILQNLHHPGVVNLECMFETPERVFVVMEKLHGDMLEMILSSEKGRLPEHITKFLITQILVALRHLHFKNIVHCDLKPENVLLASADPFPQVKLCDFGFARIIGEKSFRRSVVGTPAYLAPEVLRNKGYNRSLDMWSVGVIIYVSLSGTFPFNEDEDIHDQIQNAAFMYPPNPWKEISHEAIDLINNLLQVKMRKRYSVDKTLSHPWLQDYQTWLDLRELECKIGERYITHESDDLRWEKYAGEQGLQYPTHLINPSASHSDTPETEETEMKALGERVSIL
Nature of the assay: Selectivity interaction (KinomeScan (DiscoverX)) EUB0000092b PRKD1. The conditions noted are these: at 10 µM.

For `N#Cc1cccc(-c2c[nH]c3ncnc(N4CCOCC4)c23)c1`, in assay [1], the % of control was found to be 100%.

`Cc1cc([C@@H](C)Nc2ccccc2C(=O)O)c2nc(N3CCOCC3)cc(=O)n2c1` [AZD-6482] showed a % of control in assay [2] of 100%.

For `C=CC(=O)Nc1cccc(C(=O)Nc2ccc(Nc3cc(-c4[nH]c(SC)nc4C)ccn3)cc2)c1`, the % of control worked out at 79% in assay [3] (at 1 µM) and 51% in assay [3] (at 5 µM).

Molecule `CCC(=O)N1CCN(c2ccc(-n3c(=O)ccc4cnc5ccc(-c6cnc7ccccc7c6)cc5c43)cc2C(F)(F)F)CC1` returned a % of control in assay [4] of 99%.
